US20230265151A1, “GIP/GLP1 CO-AGONIST COMPOUNDS” (priority 2020, published 2023)
Read-outs that look alike come from different tables or passages of the source. *1 amine or outer side, *2 acyl side, *3 side chain or, on linkers, in order; H or OH if unused. Where a SMILES comes first, the peptide text is derived from it. Side-chain parts run from the residue outwards. [ ]: non-standard residue; d: D form. The star is where a group is joined. αMePhe(2-F) = C[C@](N)(Cc1ccccc1F)C(=O)O; γGlu = O=C(O)[C@H](CCC(=O)[*:2])N[*:1]; C14 diacid = O=C(O)CCCCCCCCCCCCC(=O)*; αMeY = C[C@](N)(Cc1ccc(O)cc1)C(=O)O; 4Pal = N[C@@H](Cc1ccncc1)C(=O)O; αMeL = CC(C)C[C@](C)(N)C(=O)O; Orn = NCCC[C@H](N)C(=O)O; AEEA = NCCOCCOCC(=O)O; Aib = CC(C)(N)C(=O)O

Tests used:
[1] = target: hGLP-1R (Homo sapiens, UniProt P43220); experiment: Functional cAMP formation (HTRF) in HEK-293 clonal cells expressing hGLP-1R, 0.1% bovine casein, without or with 1.0% human serum albumin; type: cell-based; set-up: expressed in transfected cells; conditions: 37° C.; for Emax: read-out: hGLP-1R Emax, % ± SEM; for EC50: read-out: hGLP-1R EC50, nM (SEM, n)
Procedure, shortened: (§1)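 Readings of the HTRF 665/620 nm ratio, which falls as cAMP rises, were converted to nM cAMP using a standard curve after 30 min peptide exposure at 37° C.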

[2] = target: T1, human Gcg receptor (hGcgR) (Homo sapiens, UniProt P47871); experiment: [125I]-Glucagon binding, SPA with membranes of HEK293 cells expressing hGcgR; conditions: human GcgR; geometric mean (SEM, n); read-out: Binding Affinity Ki, nM (SEM, n) hGCGR
T1 construct: expressed in transfected cells; crude membranes

[3] = target: T2, hGCGR (Homo sapiens, UniProt P47871); experiment: Functional cAMP formation (HTRF) in HEK-293 clonal cells expressing hGCGR, 0.1% bovine casein, without or with 1.0% human serum albumin; type: cell-based; conditions: read-out: hGCGR EC50, nM (SEM, n)
T2 construct: expressed in transfected cells
Procedure, shortened: as §1

[4] = target: T3, hGIPR (Homo sapiens, UniProt P48546); experiment: Functional cAMP formation (HTRF) in HEK-293 clonal cells expressing hGIPR, 0.1% bovine casein, without or with 1.0% human serum albumin; type: cell-based; conditions: for Emax: read-out: hGIPR Emax, % ± SEM; for EC50: geometric mean, read-out: hGIPR EC50, nM (SEM, n)
T3 construct: expressed in transfected cells
T3 sequence (P48546 22-466): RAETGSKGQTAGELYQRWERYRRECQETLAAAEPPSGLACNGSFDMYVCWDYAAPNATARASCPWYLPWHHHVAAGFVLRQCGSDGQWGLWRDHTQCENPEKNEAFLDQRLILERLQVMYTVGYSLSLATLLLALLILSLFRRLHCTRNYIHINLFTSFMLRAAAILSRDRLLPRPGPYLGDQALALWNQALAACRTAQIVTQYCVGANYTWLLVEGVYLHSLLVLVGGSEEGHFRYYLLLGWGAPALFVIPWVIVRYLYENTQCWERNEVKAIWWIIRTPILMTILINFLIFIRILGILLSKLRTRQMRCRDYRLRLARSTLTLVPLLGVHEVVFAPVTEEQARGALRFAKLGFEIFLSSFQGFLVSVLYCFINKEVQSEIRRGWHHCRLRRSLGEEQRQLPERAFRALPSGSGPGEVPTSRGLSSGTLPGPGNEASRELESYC
Procedure, shortened: as §1

[5] = HEK293, 0.1% bovine casein and 1.0% human serum albumin, percent of maximal response to GLP-1(7-36)NH2
[6] = 0.1% bovine casein and 1.0% human serum albumin, 37° C., geometric mean
[7] = cAMP, incubated at 37° C., 0.1% bovine casein (no human serum albumin), geometric mean
[8] = HEK293, 0.1% bovine casein and 1.0% human serum albumin, 37° C., percent of maximal response to GIP(1-42)NH2
[9] = HEK293, percent of maximal response to GIP(1-42)NH2, 37° C., 0.1% bovine casein, arithmetic mean
[10] = cAMP, incubated at 37° C., 0.1% bovine casein (no human serum albumin)
[11] = 0.1% bovine casein and 1.0% human serum albumin, geometric mean
[12] = 0.1% bovine casein and 1.0% human serum albumin, 37° C.

Chain of hGLP-1R (P43220 24-463): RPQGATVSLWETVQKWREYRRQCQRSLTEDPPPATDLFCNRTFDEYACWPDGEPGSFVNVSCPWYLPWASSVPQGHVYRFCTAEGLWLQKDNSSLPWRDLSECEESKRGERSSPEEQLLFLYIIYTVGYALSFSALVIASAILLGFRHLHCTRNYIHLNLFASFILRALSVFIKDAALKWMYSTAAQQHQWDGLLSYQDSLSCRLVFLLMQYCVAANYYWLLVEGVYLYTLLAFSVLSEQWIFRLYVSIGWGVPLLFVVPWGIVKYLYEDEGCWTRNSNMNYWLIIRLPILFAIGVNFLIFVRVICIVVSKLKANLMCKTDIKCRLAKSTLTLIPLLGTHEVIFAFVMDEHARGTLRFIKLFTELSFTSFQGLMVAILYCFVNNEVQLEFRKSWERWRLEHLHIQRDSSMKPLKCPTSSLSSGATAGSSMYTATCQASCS
T1 sequence (P47871 26-477): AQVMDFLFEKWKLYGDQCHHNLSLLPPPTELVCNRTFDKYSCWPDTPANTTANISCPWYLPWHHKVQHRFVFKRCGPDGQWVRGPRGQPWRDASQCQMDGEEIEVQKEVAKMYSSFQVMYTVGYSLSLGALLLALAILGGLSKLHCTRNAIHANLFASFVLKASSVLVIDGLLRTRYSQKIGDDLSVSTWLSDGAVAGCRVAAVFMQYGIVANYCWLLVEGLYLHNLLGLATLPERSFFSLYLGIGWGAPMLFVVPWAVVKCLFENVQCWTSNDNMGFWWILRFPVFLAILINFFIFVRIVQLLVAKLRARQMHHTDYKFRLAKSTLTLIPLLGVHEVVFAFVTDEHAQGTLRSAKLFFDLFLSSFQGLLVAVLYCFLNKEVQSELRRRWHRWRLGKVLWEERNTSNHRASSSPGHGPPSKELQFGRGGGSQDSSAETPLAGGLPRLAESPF
T2 sequence (P47871 26-477): as above

Structure (SMILES) | Emax [1, 5] | Emax ([1]; HEK293, percent of maximal response to GLP-1(7-36)NH2, 0.1% bovine casein, arithmetic mean) | Ki [2] | EC50 [3, 6] | EC50 [3, 7] | Emax [4, 8] | Emax [4, 9] | EC50 [4, 10] | EC50 [1, 11] | EC50 [4, 12] | Emax ([1]; HEK293, cAMP, 0.1% bovine casein and 1.0% human serum albumin, percent of maximal response to GLP-1(7-36)NH2) | Emax ([1]; HEK293, cAMP, 0.1% bovine casein, percent of maximal response to GLP-1(7-36)NH2, arithmetic mean) | EC50 ([1]; cAMP, 0.1% bovine casein (no human serum albumin), geometric mean) | EC50 ([1]; cAMP, 0.1% bovine casein and 1.0% human serum albumin, geometric mean (SEM, n)) | EC50 ([3]; cAMP, 37° C., 0.1% bovine casein (no human serum albumin), geometric mean) | EC50 ([3]; cAMP, 37° C., 0.1% bovine casein and 1.0% human serum albumin, geometric mean (SEM, n)) | Emax ([4]; HEK293, cAMP, 37° C., 0.1% bovine casein and 1.0% human serum albumin, percent of maximal response to GIP(1-42)NH2) | EC50 ([4]; cAMP, 37° C., 0.1% bovine casein (no human serum albumin))
CC[C@H](C)[C@H](NC(=O)[C@H](CC(C)C)NC(=O)[C@](C)(Cc1ccc(O)cc1)NC(=O)[C@@H](CCC(=O)O)NC(=O)[C@@H](NC(=O)[C@H](Cc1cccc(Cl)c1)NC(=O)[C@H](CCC(=O)O)NC(=O)C(C)(C)NC(=O)[C@H](CCC(N)=O)NC(=O)[C@H](C)NC(=O)[C@H](CCCCNC(=O)COCCOCCNC(=O)COCCOCCNC(=O)CC[C@H](NC(=O)CCCCCCCCCCCCC(=O)O)C(=O)O)NC(=O)[C@H](CCCN)NC(=O)[C@H](CC(=O)O)NC(=O)[C@H](CC(C)C)NC(=O)[C@](C)(CC(C)C)NC(=O)[C@@H](NC(=O)[C@H](CO)NC(=O)[C@H](Cc1ccncc1)NC(=O)[C@H](CC(=O)O)NC(=O)[C@H](CO)NC(=O)[C@@H](NC(=O)[C@](C)(Cc1ccccc1F)NC(=O)[C@@H](NC(=O)CNC(=O)[C@H](CCC(=O)O)NC(=O)C(C)(C)NC(=O)[C@@H](N)Cc1ccc(O)cc1)[C@@H](C)O)[C@@H](C)O)[C@@H](C)CC)[C@@H](C)CC)C(=O)N[C@@H](CCC(=O)O)C(=O)NCC(=O)NCC(=O)N[C@@H](CCCCNC(=O)COCCOCCNC(=O)COCCOCCNC(=O)CC[C@H](NC(=O)CCCCCCCCCCCCC(=O)O)C(=O)O)C(=O)N[C@@H](CO)C(=O)N[C@@H](CO)C(=O)NCC(=O)N[C@@H](C)C(=O)N1CCC[C@H]1C(=O)N1CCC[C@H]1C(=O)N1CCC[C@H]1C(=O)N[C@@H](CO)C(N)=O [Example 62] | 85.8 ± 3.31% | 99.4 ± 5.83% | > 4780 nM | > 9950 nM | > 9950 nM | 94.3 ± 0.785% | 96.1 ± 2.64% | 0.0211 nM |  |  |  |  |  |  |  |  |  | 
CC[C@H](C)[C@H](NC(=O)[C@H](CCCN)NC(=O)[C@H](CC(=O)O)NC(=O)[C@H](CC(C)C)NC(=O)[C@](C)(CC(C)C)NC(=O)[C@@H](NC(=O)[C@H](CO)NC(=O)[C@H](Cc1ccncc1)NC(=O)[C@H](CC(=O)O)NC(=O)[C@H](CO)NC(=O)[C@@H](NC(=O)[C@](C)(Cc1ccccc1F)NC(=O)[C@@H](NC(=O)CNC(=O)[C@H](CCC(=O)O)NC(=O)C(C)(C)NC(=O)[C@@H](N)Cc1ccc(O)cc1)[C@@H](C)O)[C@@H](C)O)[C@@H](C)CC)C(=O)N[C@@H](C)C(=O)N[C@@H](CCC(N)=O)C(=O)NC(C)(C)C(=O)N[C@@H](CCC(=O)O)C(=O)N[C@@H](Cc1ccccc1)C(=O)N[C@H](C(=O)N[C@H](CCC(=O)O)C(=O)N[C@@](C)(Cc1ccc(O)cc1)C(=O)N[C@@H](CC(C)C)C(=O)N[C@H](C(=O)N[C@@H](CCCCNC(=O)COCCOCCNC(=O)COCCOCCNC(=O)CC[C@H](NC(=O)CCCCCCCCCCCCC(=O)O)C(=O)O)C(=O)NCC(=O)NCC(=O)N[C@@H](CCCCNC(=O)COCCOCCNC(=O)COCCOCCNC(=O)CC[C@H](NC(=O)CCCCCCCCCCCCC(=O)O)C(=O)O)C(=O)N[C@@H](CO)C(=O)N[C@@H](CO)C(=O)NCC(=O)N[C@@H](C)C(=O)N1CCC[C@H]1C(=O)N1CCC[C@H]1C(=O)N1CCC[C@H]1C(=O)N[C@@H](CO)C(N)=O)[C@@H](C)CC)[C@@H](C)CC [Example 20] |  |  | 139 nM | > 9950 nM | > 9950 nM | 90.6 ± 0.878% | 98.8 ± 3.19% |  | 62.4 nM | 1.66 nM |  |  |  |  |  |  |  | 
CC[C@H](C)[C@H](NC(=O)[C@H](CC(C)C)NC(=O)[C@](C)(Cc1ccc(O)cc1)NC(=O)[C@@H](CCC(=O)O)NC(=O)[C@@H](NC(=O)[C@H](Cc1ccccc1)NC(=O)[C@H](CCC(=O)O)NC(=O)C(C)(C)NC(=O)[C@H](CCC(N)=O)NC(=O)[C@H](C)NC(=O)[C@H](CCCCNC(=O)COCCOCCNC(=O)CC[C@H](NC(=O)COCCOCCNC(=O)CCCCCCCCCCCCC(=O)O)C(=O)O)NC(=O)[C@H](CCCN)NC(=O)[C@H](CC(=O)O)NC(=O)[C@H](CC(C)C)NC(=O)[C@](C)(CC(C)C)NC(=O)[C@@H](NC(=O)[C@H](CO)NC(=O)[C@H](Cc1ccncc1)NC(=O)[C@H](CC(=O)O)NC(=O)[C@H](CO)NC(=O)[C@@H](NC(=O)[C@](C)(Cc1ccccc1F)NC(=O)[C@@H](NC(=O)CNC(=O)[C@H](CCC(=O)O)NC(=O)C(C)(C)NC(=O)[C@@H](N)Cc1ccc(O)cc1)[C@@H](C)O)[C@@H](C)O)[C@@H](C)CC)[C@@H](C)CC)C(=O)N[C@@H](CCC(=O)O)C(=O)NCC(=O)NCC(=O)N[C@@H](CCCCNC(=O)COCCOCCNC(=O)CC[C@H](NC(=O)COCCOCCNC(=O)CCCCCCCCCCCCC(=O)O)C(=O)O)C(=O)N[C@@H](CO)C(=O)N[C@@H](CO)C(=O)NCC(=O)N[C@@H](C)C(=O)N1CCC[C@H]1C(=O)N1CCC[C@H]1C(=O)N1CCC[C@H]1C(=O)N[C@@H](CO)C(N)=O [Example 43] | 98.7% |  | > 957 nM | > 9950 nM | > 9950 nM |  |  | 0.0123 nM | 35.6 nM | 0.375 nM |  |  |  |  |  |  |  | 
CC[C@H](C)[C@H](NC(=O)[C@H](CC(C)C)NC(=O)[C@](C)(Cc1ccc(O)cc1)NC(=O)[C@@H](CCC(=O)O)NC(=O)[C@@H](NC(=O)[C@H](Cc1ccccc1)NC(=O)[C@H](CCCCNC(=O)COCCOCCNC(=O)COCCOCCNC(=O)CC[C@H](NC(=O)CCCCCCCCCCCCC(=O)O)C(=O)O)NC(=O)C(C)(C)NC(=O)[C@H](CCC(N)=O)NC(=O)[C@H](C)NC(=O)[C@H](CCC(N)=O)NC(=O)[C@H](CCCN)NC(=O)[C@H](CC(=O)O)NC(=O)[C@H](CC(C)C)NC(=O)[C@](C)(CC(C)C)NC(=O)[C@@H](NC(=O)C(C)(C)NC(=O)[C@H](Cc1ccncc1)NC(=O)[C@H](CC(=O)O)NC(=O)[C@H](CO)NC(=O)[C@@H](NC(=O)[C@](C)(Cc1ccccc1F)NC(=O)[C@@H](NC(=O)CNC(=O)[C@H](CCC(=O)O)NC(=O)C(C)(C)NC(=O)[C@@H](N)Cc1ccc(O)cc1)[C@@H](C)O)[C@@H](C)O)[C@@H](C)CC)[C@@H](C)CC)C(=O)N[C@@H](CCC(=O)O)C(=O)NCC(=O)NCC(=O)N1CCC[C@H]1C(=O)N[C@@H](CO)C(=O)N[C@@H](CO)C(=O)NCC(=O)N[C@@H](C)C(=O)N1CCC[C@H]1C(=O)N1CCC[C@H]1C(=O)N1CCC[C@H]1C(=O)N[C@@H](CO)C(=O)N[C@@H](CCCCNC(=O)COCCOCCNC(=O)COCCOCCNC(=O)CC[C@H](NC(=O)CCCCCCCCCCCCC(=O)O)C(=O)O)C(N)=O [Example 489] (H-Y[Aib]EGT[αMePhe(2-F)]TSD[4Pal][Aib]I[αMeL]LD[Orn]QAQ[Aib]K([AEEA-AEEA-γGlu-C14 diacid])FI[dE][αMeY]LIEGGPSSGAPPPSK([AEEA-AEEA-γGlu-C14 diacid])-NH2) |  |  | > 957 nM |  |  |  |  |  |  |  | 98.7% | 112% | 0.257 nM | 13.5 nM | > 10100 nM | > 9950 nM | 79.4% | 0.0131 nM
